According to paper PMC10176470, “Engaging a Non-catalytic Cysteine Residue Drives Potent and Selective Inhibition of Caspase-6” (Journal of the American Chemical Society, 2023):
Read-outs that look alike come from different tables or passages of the source.

What was measured:
Format in all cases: cell-based
[1] = biological target: proteins of HEK293T cells transiently overexpressing caspase-6 (Homo sapiens, UniProt P04843); settings: exp_ref Probe; protein RPN1 (P04843); analysis C6
[2] = biological target: proteins of HEK293T cells transiently overexpressing caspase-6 (Homo sapiens, UniProt P10809); settings: protein HSPD1 (P10809)
[3] = biological target: T1, proteins of HEK293T cells transiently overexpressing caspase-6 (Homo sapiens, UniProt P30048)
T1 sequence (P30048 62-256): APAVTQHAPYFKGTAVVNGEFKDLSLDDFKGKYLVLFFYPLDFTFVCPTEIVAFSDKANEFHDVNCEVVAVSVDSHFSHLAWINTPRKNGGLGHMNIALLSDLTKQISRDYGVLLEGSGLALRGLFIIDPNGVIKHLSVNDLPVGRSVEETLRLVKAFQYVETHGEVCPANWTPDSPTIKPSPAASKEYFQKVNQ

[4] = biological target: proteins of HEK293T cells transiently overexpressing caspase-6 (Homo sapiens, UniProt P43487); settings: exp_ref Probe; protein RANBP1 (P43487); analysis C6
[5] = biological target: T2, proteins of HEK293T cells transiently overexpressing caspase-6 (Homo sapiens, UniProt P45880); settings: protein VDAC2 (P45880)
T2 sequence (P45880 1-294): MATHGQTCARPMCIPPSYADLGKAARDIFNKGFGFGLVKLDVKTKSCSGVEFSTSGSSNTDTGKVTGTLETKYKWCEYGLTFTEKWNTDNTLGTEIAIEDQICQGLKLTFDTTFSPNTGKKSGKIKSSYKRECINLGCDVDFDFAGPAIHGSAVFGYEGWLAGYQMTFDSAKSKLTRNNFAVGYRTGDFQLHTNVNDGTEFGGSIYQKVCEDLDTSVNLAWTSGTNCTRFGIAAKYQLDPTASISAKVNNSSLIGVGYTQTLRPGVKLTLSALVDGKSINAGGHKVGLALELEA

[6] = biological target: T3, proteins of HEK293T cells transiently overexpressing caspase-6 (Homo sapiens, UniProt P55060); settings: protein CSE1L (P55060)
T3 sequence (P55060 1-971): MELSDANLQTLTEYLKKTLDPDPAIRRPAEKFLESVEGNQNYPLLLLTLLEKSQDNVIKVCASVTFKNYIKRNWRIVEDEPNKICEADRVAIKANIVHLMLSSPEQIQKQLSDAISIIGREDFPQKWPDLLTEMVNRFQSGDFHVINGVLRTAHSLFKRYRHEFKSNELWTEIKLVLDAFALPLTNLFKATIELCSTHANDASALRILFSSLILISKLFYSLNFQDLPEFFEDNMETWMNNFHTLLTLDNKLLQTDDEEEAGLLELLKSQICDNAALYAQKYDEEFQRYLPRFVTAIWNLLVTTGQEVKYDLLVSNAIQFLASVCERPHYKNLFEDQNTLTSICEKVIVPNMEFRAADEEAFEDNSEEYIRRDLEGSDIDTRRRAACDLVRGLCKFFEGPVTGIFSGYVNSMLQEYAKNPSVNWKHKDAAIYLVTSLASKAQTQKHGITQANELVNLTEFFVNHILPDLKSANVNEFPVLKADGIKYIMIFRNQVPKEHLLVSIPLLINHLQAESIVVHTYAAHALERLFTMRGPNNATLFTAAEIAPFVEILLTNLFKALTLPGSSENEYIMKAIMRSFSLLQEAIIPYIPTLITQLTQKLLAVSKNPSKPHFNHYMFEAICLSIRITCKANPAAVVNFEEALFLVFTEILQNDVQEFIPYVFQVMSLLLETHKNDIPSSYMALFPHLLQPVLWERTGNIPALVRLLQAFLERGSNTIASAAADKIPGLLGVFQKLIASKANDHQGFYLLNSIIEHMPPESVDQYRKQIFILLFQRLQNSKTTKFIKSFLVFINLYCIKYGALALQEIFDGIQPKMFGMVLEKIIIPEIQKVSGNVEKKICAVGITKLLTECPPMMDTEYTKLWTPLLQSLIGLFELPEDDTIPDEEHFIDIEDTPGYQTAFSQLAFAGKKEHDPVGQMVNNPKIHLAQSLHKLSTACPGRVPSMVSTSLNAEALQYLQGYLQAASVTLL

[7] = biological target: proteins of HEK293T cells transiently overexpressing caspase-6 (Homo sapiens, UniProt P62280); settings: protein RPS11 (P62280), analysis C6
[8] = biological target: proteins of HEK293T cells transiently overexpressing caspase-6 (Homo sapiens, UniProt Q15366); settings: exp_ref Probe; protein PCBP2 (Q15366); analysis C6
[9] = biological target: proteins of HEK293T cells transiently overexpressing caspase-6 (Homo sapiens, UniProt Q9NUU7); settings: protein DDX19A (Q9NUU7); exp_ref Probe; analysis C6
[10] = biological target: proteins of HEK293T cells transiently overexpressing caspase-6 (Homo sapiens, UniProt Q9NVX2); settings: Probe; protein NLE1 Q9NVX2
[11] = biological target: proteins of HEK293T cells transiently overexpressing caspase-6 (Homo sapiens, UniProt Q9Y2X3); settings: protein NOP58 (Q9Y2X3); exp_ref Probe; analysis C6
Chain of proteins of HEK293T cells transiently overexpressing caspase-6 (Homo sapiens, UniProt Q9Y2X3) (Q9Y2X3 whole entry): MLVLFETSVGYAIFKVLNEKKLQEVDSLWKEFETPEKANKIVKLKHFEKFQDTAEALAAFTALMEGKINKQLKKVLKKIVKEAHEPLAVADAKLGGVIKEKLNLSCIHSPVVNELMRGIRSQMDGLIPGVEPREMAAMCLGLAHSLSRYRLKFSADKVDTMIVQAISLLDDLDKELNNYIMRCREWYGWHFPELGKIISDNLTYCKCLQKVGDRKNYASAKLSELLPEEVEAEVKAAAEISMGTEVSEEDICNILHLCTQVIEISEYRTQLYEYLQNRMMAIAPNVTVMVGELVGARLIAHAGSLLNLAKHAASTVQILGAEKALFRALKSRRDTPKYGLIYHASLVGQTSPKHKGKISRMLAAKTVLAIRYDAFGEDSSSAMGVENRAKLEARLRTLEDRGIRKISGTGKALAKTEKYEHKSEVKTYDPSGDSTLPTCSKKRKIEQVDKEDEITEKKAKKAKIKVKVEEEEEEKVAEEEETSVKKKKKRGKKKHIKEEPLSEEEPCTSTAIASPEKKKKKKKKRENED

Chain of proteins of HEK293T cells transiently overexpressing caspase-6 (Homo sapiens, UniProt P10809) (P10809 27-573): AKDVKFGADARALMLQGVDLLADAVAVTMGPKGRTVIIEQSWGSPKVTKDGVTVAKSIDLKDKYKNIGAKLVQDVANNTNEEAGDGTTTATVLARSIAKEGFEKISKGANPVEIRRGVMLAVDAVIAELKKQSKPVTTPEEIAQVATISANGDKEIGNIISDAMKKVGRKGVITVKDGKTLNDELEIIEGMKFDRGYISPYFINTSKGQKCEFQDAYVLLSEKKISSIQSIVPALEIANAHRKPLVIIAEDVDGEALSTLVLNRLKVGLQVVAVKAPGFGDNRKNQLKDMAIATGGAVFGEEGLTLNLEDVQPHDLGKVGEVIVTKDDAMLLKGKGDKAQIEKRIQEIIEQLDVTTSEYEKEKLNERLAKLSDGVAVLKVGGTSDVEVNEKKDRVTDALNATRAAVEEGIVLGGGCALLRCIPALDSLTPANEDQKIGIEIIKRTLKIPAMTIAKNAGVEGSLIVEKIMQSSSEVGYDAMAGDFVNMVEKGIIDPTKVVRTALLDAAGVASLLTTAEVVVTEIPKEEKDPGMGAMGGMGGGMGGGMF
Chain of proteins of HEK293T cells transiently overexpressing caspase-6 (Homo sapiens, UniProt P04843) (P04843 24-607): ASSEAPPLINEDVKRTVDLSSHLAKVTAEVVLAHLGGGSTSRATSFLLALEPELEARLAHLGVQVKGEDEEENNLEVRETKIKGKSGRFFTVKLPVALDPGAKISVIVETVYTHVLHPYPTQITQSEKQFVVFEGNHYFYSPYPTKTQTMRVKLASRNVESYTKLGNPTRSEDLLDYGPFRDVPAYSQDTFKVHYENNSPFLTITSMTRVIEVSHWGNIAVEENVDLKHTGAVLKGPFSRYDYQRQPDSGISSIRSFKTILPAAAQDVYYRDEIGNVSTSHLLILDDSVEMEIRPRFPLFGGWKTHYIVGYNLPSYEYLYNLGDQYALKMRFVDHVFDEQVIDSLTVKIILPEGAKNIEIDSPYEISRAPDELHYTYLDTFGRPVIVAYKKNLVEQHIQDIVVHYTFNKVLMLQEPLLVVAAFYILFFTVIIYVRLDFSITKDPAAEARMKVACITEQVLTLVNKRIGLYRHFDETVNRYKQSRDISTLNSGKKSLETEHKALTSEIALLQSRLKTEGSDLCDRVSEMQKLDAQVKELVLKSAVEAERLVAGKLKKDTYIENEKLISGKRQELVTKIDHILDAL
Chain of proteins of HEK293T cells transiently overexpressing caspase-6 (Homo sapiens, UniProt Q15366) (Q15366 whole entry): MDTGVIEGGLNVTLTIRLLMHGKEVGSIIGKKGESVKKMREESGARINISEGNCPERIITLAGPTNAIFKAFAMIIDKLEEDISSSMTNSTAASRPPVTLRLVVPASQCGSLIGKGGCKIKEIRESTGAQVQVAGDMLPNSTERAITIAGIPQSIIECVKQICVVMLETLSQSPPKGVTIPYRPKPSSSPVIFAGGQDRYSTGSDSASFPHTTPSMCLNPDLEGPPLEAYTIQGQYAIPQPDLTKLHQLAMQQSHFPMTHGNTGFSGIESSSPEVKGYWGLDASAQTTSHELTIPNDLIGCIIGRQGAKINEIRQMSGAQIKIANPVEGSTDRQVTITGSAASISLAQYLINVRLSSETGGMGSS
Chain of proteins of HEK293T cells transiently overexpressing caspase-6 (Homo sapiens, UniProt Q9NUU7) (Q9NUU7 whole entry): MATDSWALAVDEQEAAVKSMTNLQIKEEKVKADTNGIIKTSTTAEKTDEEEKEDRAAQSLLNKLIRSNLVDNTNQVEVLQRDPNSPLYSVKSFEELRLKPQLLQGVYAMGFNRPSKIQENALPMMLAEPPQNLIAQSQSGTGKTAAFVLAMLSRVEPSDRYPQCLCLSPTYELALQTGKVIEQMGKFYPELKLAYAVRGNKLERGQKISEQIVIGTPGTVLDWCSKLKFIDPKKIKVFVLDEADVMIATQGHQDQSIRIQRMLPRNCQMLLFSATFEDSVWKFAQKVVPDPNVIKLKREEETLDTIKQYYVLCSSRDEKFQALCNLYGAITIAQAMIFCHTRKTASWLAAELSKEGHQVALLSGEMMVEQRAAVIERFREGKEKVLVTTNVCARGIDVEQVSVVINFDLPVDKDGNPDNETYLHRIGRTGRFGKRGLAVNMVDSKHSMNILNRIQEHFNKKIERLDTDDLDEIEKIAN
Chain of proteins of HEK293T cells transiently overexpressing caspase-6 (Homo sapiens, UniProt P43487) (P43487 whole entry): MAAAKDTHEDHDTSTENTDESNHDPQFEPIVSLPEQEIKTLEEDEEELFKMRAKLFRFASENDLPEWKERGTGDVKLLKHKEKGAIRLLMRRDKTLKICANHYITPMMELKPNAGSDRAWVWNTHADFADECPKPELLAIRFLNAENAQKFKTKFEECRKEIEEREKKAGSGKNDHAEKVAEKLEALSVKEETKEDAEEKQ
Chain of proteins of HEK293T cells transiently overexpressing caspase-6 (Homo sapiens, UniProt Q9NVX2) (Q9NVX2 whole entry): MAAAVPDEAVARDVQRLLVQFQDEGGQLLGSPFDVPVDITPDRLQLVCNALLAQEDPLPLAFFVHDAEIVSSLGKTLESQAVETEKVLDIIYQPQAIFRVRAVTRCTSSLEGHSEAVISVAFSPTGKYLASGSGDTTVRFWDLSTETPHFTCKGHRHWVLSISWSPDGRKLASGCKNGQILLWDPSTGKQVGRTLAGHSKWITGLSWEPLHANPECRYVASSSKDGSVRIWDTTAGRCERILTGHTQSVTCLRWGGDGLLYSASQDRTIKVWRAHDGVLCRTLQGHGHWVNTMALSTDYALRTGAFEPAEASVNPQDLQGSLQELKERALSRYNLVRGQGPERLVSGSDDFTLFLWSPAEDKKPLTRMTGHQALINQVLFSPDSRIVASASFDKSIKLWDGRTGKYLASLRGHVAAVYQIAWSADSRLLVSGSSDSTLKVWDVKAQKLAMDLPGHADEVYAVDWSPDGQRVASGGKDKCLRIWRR

SMILES: C#CCOc1ccc([C@@H]2C[C@@H](C(=O)Nc3ccc(OC(F)(F)F)cc3)CN(S(=O)(=O)C=C)C2)cc1 (relative stereo) [13-t]
- enrich.exp.med [1]: 1.117
- enrich.exp.med ([2]; exp_ref Probe, analysis C6): 0.7989
- enrich.exp.med.lin [2]: 1.7398
- enrich.exp.med.log2 [2]: 0.7989
- enrich.exp.med ([3]; Probe, protein PRDX3 P30048): -1.058
- enrich.exp.med.lin ([3]; protein PRDX3 (P30048)): 0.4804
- enrich.exp.med.log2 ([3]; protein PRDX3 (P30048)): -1.058
- enrich.exp.med [4]: 0.3695
- enrich.exp.med.lin [5]: 4.704
- enrich.exp.med.log2 [5]: 2.234
- enrich.exp.med.lin ([5]; Expt Probe, analysis C6): 4.704
- enrich.exp.med.log2 ([5]; Expt Probe, analysis C6): 2.234
- enrich.exp.med ([5]; exp_ref Probe, analysis C6): 2.234
- enrich.exp.med ([6]; exp_ref Probe, analysis C6): 1.237
- enrich.exp.med.lin [6]: 2.357
- enrich.exp.med.log2 [6]: 1.237
- enrich.exp.med.lin ([7]; Expt Probe): 5.0581
- enrich.exp.med.log2 ([7]; Expt Probe): 2.3386
- enrich.exp.med ([7]; exp_ref Probe): 2.3386
- enrich.exp.med [8]: 0.5184
- enrich.exp.med [9]: 1.908
- enrich.exp.med [10]: -1.769
- enrich.exp.med [11]: 1.504
